Measurements taken from US20250353841A1 (BIOGEN MA INC., priority 2022, published 2025).

Test system: mutant Huntington (HTT) protein
Test: HTT Mutant HTRF iPSC assay (mHTT protein lowering)
Format: cell-based
Settings: human iPSC derived from a HTT patient with a poly-Q49 mutation

Row | SMILES | IC50
1 | Cc1cc(-c2cc(F)c3nn(C4CCNCC4)nc3c2)nc2cn(C)nc12 [Compound 381, 6-(2,7-dimethyl-2H-pyrazolo[4,3-b]pyridin-5-yl)-4-fluoro-2-(piperidin-4-yl)-2H-benzo[d][1,2,3]triazole] | 100 to 1000 nM
2 | Cn1cc2cc(-c3cc(F)c4nn(C5CCNCC5)nc4c3)cc(C(F)F)c2n1 [Compound 382, 6-(7-(difluoromethyl)-2-methyl-2H-indazol-5-yl)-4-fluoro-2-(piperidin-4-yl)-2H-benzo[d][1,2,3]triazole] | 100 to 1000 nM
3 | Cc1cn2nc(-c3cc(F)c4nn(CC5CNC5)nc4c3)cc(C)c2n1 [Compound 383, 2-(azetidin-3-ylmethyl)-6-(2,8-dimethylimidazo[1,2-b]pyridazin-6-yl)-4-fluoro-2H-benzo[d][1,2,3]triazole] | 100 to 1000 nM
4 | Cc1cn2nc(-c3cc(F)c4nn(C5CCNCC5)nc4c3)ccc2n1 [Compound 384, 4-fluoro-6-(2-methylimidazo[1,2-b]pyridazin-6-yl)-2-(piperidin-4-yl)-2H-benzo[d][1,2,3]triazole] | 100 to 1000 nM
5 | Cc1cn2nc(-c3cc(F)c4nn(C5CC6(CNC6)C5)nc4c3)cc(C)c2n1 [Compound 385, 6-(2,8-dimethylimidazo[1,2-b]pyridazin-6-yl)-4-fluoro-2-(2-azaspiro[3.3]heptan-6-yl)-2H-benzo[d][1,2,3]triazole] | 100 to 1000 nM
6 | Cc1cn2nc(-c3cc(F)c4nn(CC5CCNC5)nc4c3)cc(C)c2n1 (stereo not drawn) [Compound 386, 6-(2,8-dimethylimidazo[1,2-b]pyridazin-6-yl)-4-fluoro-2-(pyrrolidin-3-ylmethyl)-2H-benzo[d][1,2,3]triazole] | < 100 nM
7 | Cc1cn2nc(-c3cc(F)c4nn(C5CCNCC5)nc4c3)cc(C3CC3)c2n1 [Compound 387, 6-(8-cyclopropyl-2-methylimidazo[1,2-b]pyridazin-6-yl)-4-fluoro-2-(piperidin-4-yl)-2H-benzo[d][1,2,3]triazole] | 100 to 1000 nM
8 | Cc1cn2nc(-c3cc(F)c4nn(C5CCNCC5)nc4c3)cc2c(C)n1 [Compound 388, 6-(4,6-dimethylpyrazolo[1,5-a]pyrazin-2-yl)-4-fluoro-2-(piperidin-4-yl)-2H-benzo[d][1,2,3]triazole] | 100 to 1000 nM
9 | CCc1cc(-c2cc(F)c3nn(C4CCNCC4)nc3c2)nn2cc(C)nc12 [Compound 389, 6-(8-ethyl-2-methylimidazo[1,2-b]pyridazin-6-yl)-4-fluoro-2-(piperidin-4-yl)-2H-benzo[d][1,2,3]triazole] | 100 to 1000 nM
10 | Cc1nc2c(C)cc(-c3cc(F)c4nn(C5CCNCC5)nc4c3)nn2n1 [Compound 390, 6-(7-fluoro-2-(piperidin-4-yl)-2H-benzo[d][1,2,3]triazol-5-yl)-2,8-dimethyl-[1,2,4]triazolo[1,5-b]pyridazine] | 100 to 1000 nM
11 | Cc1nc2c(C(F)(F)F)cc(-c3cc(F)c4nn(C5CCNCC5)nc4c3)nn2n1 [Compound 391, 6-(7-fluoro-2-(piperidin-4-yl)-2H-benzo[d][1,2,3]triazol-5-yl)-2-methyl-8-(trifluoromethyl)-[1,2,4]triazolo[1,5-b]pyridazine] | < 100 nM
12 | COc1cc(-c2cc(F)c3nn(C4CCNCC4)nc3c2)nn2nc(C)nc12 [Compound 392, 6-(7-fluoro-2-(piperidin-4-yl)-2H-benzo[d][1,2,3]triazol-5-yl)-8-methoxy-2-methyl-[1,2,4]triazolo[1,5-b]pyridazine] | 100 to 1000 nM
13 | Cc1cn2nc(-c3cc(F)c4nn(C5CC6(CCNCC6)C5)nc4c3)cc(C)c2n1 [Compound 395, 6-(2,8-dimethylimidazo[1,2-b]pyridazin-6-yl)-4-fluoro-2-(7-azaspiro[3.5]nonan-2-yl)-2H-benzo[d][1,2,3]triazole] | < 100 nM
14 | Cc1cn2nc(-c3cc(F)c4nn(C5CCC6(CCNC6)C5)nc4c3)cc(C)c2n1 (stereo not drawn) [Compound 396, 6-(2,8-dimethylimidazo[1,2-b]pyridazin-6-yl)-4-fluoro-2-(2-azaspiro[4.4]nonan-7-yl)-2H-benzo[d][1,2,3]triazole] | 100 to 1000 nM
15 | Cc1cn2nc(-c3cc(F)c4nn(C5CC6(CCNC6)C5)nc4c3)cc(C)c2n1 (stereo not drawn) [Compound 398, 6-(2,8-dimethylimidazo[1,2-b]pyridazin-6-yl)-4-fluoro-2-(6-azaspiro[3.4]octan-2-yl)-2H-benzo[d][1,2,3]triazole] | < 100 nM
16 | COCCN1CCC(c2nc3cc(-c4cc(C)c5nc(C)cn5n4)cc(F)c3[nH]2)CC1 [Compound 417, 6-(7-fluoro-2-(1-(2-methoxyethyl)piperidin-4-yl)-1H-benzo[d]imidazol-5-yl)-2,8-dimethylimidazo[1,2-b]pyridazine] | 100 to 1000 nM
17 | Cc1cn2nc(-c3cc(F)c4[nH]c(C5CCNC(C)C5)nc4c3)cc(C)c2n1 (stereo not drawn) [Compound 418, 6-(7-fluoro-2-(2-methylpiperidin-4-yl)-1H-benzo[d]imidazol-5-yl)-2,8-dimethylimidazo[1,2-b]pyridazine] | 100 to 1000 nM
18 | Cc1cn2nc(-c3cc(F)c4[nH]c(C5CCNC(C)(C)C5)nc4c3)cc(C)c2n1 (stereo not drawn) [Compound 419] | 100 to 1000 nM

Row | SMILES | IC50
19 | Cc1cn2nc(-c3cc(F)c4[nH]c(C5CC6(CCNC6)C5)nc4c3)cc(C)c2n1 (stereo not drawn) [Compound 420, 6-(7-fluoro-2-(6-azaspiro[3.4]octan-2-yl)-1H-benzo[d]imidazol-5-yl)-2,8-dimethylimidazo[1,2-b]pyridazine] | 100 to 1000 nM
20 | Cc1cn2nc(-c3cc(F)c4[nH]c(C5CC6(CCNCC6)C5)nc4c3)cc(C)c2n1 [Compound 421, 6-(7-fluoro-2-(7-azaspiro[3.5]nonan-2-yl)-1H-benzo[d]imidazol-5-yl)-2,8-dimethylimidazo[1,2-b]pyridazine] | 100 to 1000 nM
21 | Cc1cn2nc(-c3cc(F)c4[nH]c(C5CCN(CC6CC6)CC5)nc4c3)cc(C)c2n1 [Compound 422, 6-(2-(1-(cyclopropylmethyl)piperidin-4-yl)-7-fluoro-1H-benzo[d]imidazol-5-yl)-2,8-dimethylimidazo[1,2-b]pyridazine] | < 100 nM
22 | Cc1cn2nc(-c3cc(F)c4[nH]c(C5CC6CC(N)C6C5)nc4c3)cc(C)c2n1 (stereo not drawn) [Compound 423, 3-(5-(2,8-dimethylimidazo[1,2-b]pyridazin-6-yl)-7-fluoro-1H-benzo[d]imidazol-2-yl)bicyclo[3.2.0]heptan-6-amine] | 100 to 1000 nM
23 | Cc1cn2nc(-c3cc(F)c4[nH]c(C5CCC6(CC5)CNC6)nc4c3)cc(C)c2n1 [Compound 424, 6-(7-fluoro-2-(2-azaspiro[3.5]nonan-7-yl)-1H-benzo[d]imidazol-5-yl)-2,8-dimethylimidazo[1,2-b]pyridazine] | 100 to 1000 nM
24 | CCN1CCC(c2nc3cc(-c4cc(C)c5nc(C)cn5n4)cc(F)c3[nH]2)CC1 [Compound 425, 6-(2-(1-ethylpiperidin-4-yl)-7-fluoro-1H-benzo[d]imidazol-5-yl)-2,8-dimethylimidazo[1,2-b]pyridazine] | 100 to 1000 nM
25 | Cc1cn2nc(-c3cc(F)c4[nH]c(C5CCN(C6CCC6)CC5)nc4c3)cc(C)c2n1 [Compound 426, 6-(2-(1-cyclobutylpiperidin-4-yl)-7-fluoro-1H-benzo[d]imidazol-5-yl)-2,8-dimethylimidazo[1,2-b]pyridazine] | < 100 nM
26 | Cc1cn2nc(-c3cc(F)c4[nH]c(C5CCN(C6CCCC6)CC5)nc4c3)cc(C)c2n1 [Compound 427, 6-(2-(1-cyclopentylpiperidin-4-yl)-7-fluoro-1H-benzo[d]imidazol-5-yl)-2,8-dimethylimidazo[1,2-b]pyridazine] | < 100 nM
27 | Cc1cn2nc(-c3cc(F)c4[nH]c(C5CC6CCC(C5)N6)nc4c3)cc(C)c2n1 (stereo not drawn) [Compound 428, 6-(2-(8-azabicyclo[3.2.1]octan-3-yl)-7-fluoro-1H-benzo[d]imidazol-5-yl)-2,8-dimethylimidazo[1,2-b]pyridazine] | < 100 nM
28 | Cc1cn2nc(-c3cc(F)c4[nH]c(C5C6CNCC65)nc4c3)cc(C)c2n1 (stereo not drawn) [Compound 429, 6-(2-(3-azabicyclo[3.1.0]hexan-6-yl)-7-fluoro-1H-benzo[d]imidazol-5-yl)-2,8-dimethylimidazo[1,2-b]pyridazine] | < 100 nM
29 | Cc1cn2nc(-c3cc(F)c4[nH]c(C5C6CN(C)CC65)nc4c3)cc(C)c2n1 (stereo not drawn) [Compound 430, 6-(7-fluoro-2-(3-methyl-3-azabicyclo[3.1.0]hexan-6-yl)-1H-benzo[d]imidazol-5-yl)-2,8-dimethylimidazo[1,2-b]pyridazine] | < 100 nM
30 | Cc1cn2cc(-c3cc(F)c4nc(C5CCNCC5)nn4c3)cc2c(C)n1 [Compound 431, 6-(1,3-dimethylpyrrolo[1,2-a]pyrazin-7-yl)-8-fluoro-2-(piperidin-4-yl)-[1,2,4]triazolo[1,5-a]pyridine] | 100 to 1000 nM
31 | Cc1cc(-c2cc(F)c3nc(C4CCNCC4)nn3c2)cc2cn(C)nc12 [Compound 432, 6-(2,7-dimethyl-2H-indazol-5-yl)-8-fluoro-2-(piperidin-4-yl)-[1,2,4]triazolo[1,5-a]pyridine] | 100 to 1000 nM
32 | Cc1cn2nc(-c3cc(F)c4nc(C5CCN(C6CC6)CC5)nn4c3)cc(C)c2n1 [Compound 433, 2-(1-cyclopropylpiperidin-4-yl)-6-(2,8-dimethylimidazo[1,2-b]pyridazin-6-yl)-8-fluoro-[1,2,4]triazolo[1,5-a]pyridine] | 100 to 1000 nM
33 | Cc1cn2nc(-c3cc(F)c4nc(C5CCN(C)CC5)nn4c3)cc(C)c2n1 [Compound 434, 6-(2,8-dimethylimidazo[1,2-b]pyridazin-6-yl)-8-fluoro-2-(1-methylpiperidin-4-yl)-[1,2,4]triazolo[1,5-a]pyridine] | 100 to 1000 nM
34 | CCN1CCC(c2nc3c(F)cc(-c4cc(C)c5nc(C)cn5n4)cn3n2)CC1 [Compound 435, 6-(2,8-dimethylimidazo[1,2-b]pyridazin-6-yl)-2-(1-ethylpiperidin-4-yl)-8-fluoro-[1,2,4]triazolo[1,5-a]pyridine] | 100 to 1000 nM
35 | Cc1cn2nc(-c3cc(F)c4nc(C5CCN(CC(C)(C)C)CC5)nn4c3)cc(C)c2n1 [Compound 436, 6-(2,8-dimethylimidazo[1,2-b]pyridazin-6-yl)-8-fluoro-2-(1-neopentylpiperidin-4-yl)-[1,2,4]triazolo[1,5-a]pyridine] | 100 to 1000 nM
36 | Cc1cn2nc(-c3cc(F)c4nc(C5CCN(C6CCC6)CC5)nn4c3)cc(C)c2n1 [Compound 437, 2-(1-cyclobutylpiperidin-4-yl)-6-(2,8-dimethylimidazo[1,2-b]pyridazin-6-yl)-8-fluoro-[1,2,4]triazolo[1,5-a]pyridine] | 100 to 1000 nM
